tested on: pS6K1 in MCF7; test: AlphaLISA Ultra pS6K1 Assay; type: cell-based; conditions: Homo sapiens, 1.5 h; MCF7 cells, 90 min incubation
Method: Example 74: AlphaLISA Ultra pS6K1 Assay
Assay Protocol: • 1. Seed MCF-7 cells in Corning 3701 plate and incubate for 20˜24 hour. 12,000˜16,000 cells will be seeded in 36 μL medium per well. • 2. Change the culture medium with fresh medium and incubate for another 2 hours. • 3. Add 12 μL (4×) compounds into the cell plate by HAMILTON. Final DMSO concentration is 0.5%. Incubate for 90 minutes. • 4. Aspirate 38 μL by HAMILTON, 10 μL rest per well. • 5. Add 10 μL 2× lysis buffer using HAMILTON; total volume in wells is 20 μL. Allow cells to shake for 30 min. Cover plate by plastic foil and store plate at −80° C. up to analysis. • 6. Thaw cell lysate at RT and transfer 10 μL lysate to assay plate (Optiplate-384). • 7. Add 5 μL acceptor beads into assay plate and incubation for 2 hours • 8. Add 5 μL donor beads and incubation for 2 hours • 9. Count the plate by EnSpire Multimode Plate Reader

`COCCS(=O)(=O)CCOC1C[C@@H]2CC[C@@H](C)[C@@](O)(O2)C(=O)C(=O)N2CCCC[C@H]2C(=O)O[C@H]([C@H](C)C[C@@H]2CC[C@@H](OCCO)[C@H](OC)C2)CC(=O)[C@H](C)/C=C(\C)[C@@H](O)[C@@H](OC)C(=O)[C@H](C)C[C@H](C)/C=C/C=C/C=C/1C` (stereo partly drawn) [Example I-25, (22E,24E,26E,27E,35R,36S,37R,38R,40S,42S,45S,46R,47R,56R)-46,56-dihydroxy-45-[(1R)-2-[(1S,3R,4R)-4-(2-hydroxyethoxy)-3-methoxy-cyclohexyl]-1-methyl-ethyl]-47-methoxy-44-[2-(2-methoxyethylsulfonyl)ethoxy]-35,36,37,38,48,49-hexamethyl-68,69-dioxa-57-azatricyclohexatriaconta-22,24,26(48),27(49)-tetraene-50,51,52,53,54-pentone] and `COCCS(=O)(=O)CCOC1C[C@@H]2CC[C@@H](C)[C@@](O)(O2)C(=O)C(=O)N2CCCC[C@H]2C(=O)O[C@H]([C@H](C)C[C@@H]2CC[C@@H](O)[C@H](OC)C2)CC(=O)[C@H](C)/C=C(\C)[C@@H](O)[C@@H](OC)C(=O)[C@H](C)C[C@H](C)/C=C/C=C/C=C/1C` (stereo partly drawn) [Example I-26, (22E,24E,26E,27E,33R,34S,35R,36R,38S,40S,43S,44R,45R,54R)-44,54-dihydroxy-43-[(1R)-2-[(1S,3R,4R)-4-hydroxy-3-methoxy-cyclohexyl]-1-methyl-ethyl]-45-methoxy-42-[2-(2-methoxyethylsulfonyl)ethoxy]-33,34,35,36,46,47-hexamethyl-66,67-dioxa-55-azatricyclohexatriaconta-22,24,26(46),27(47)-tetraene-48,49,50,51,52-pentone] fall in the same range of IC50: 0.1 to 1 nM for the first, 0.1 to 1 nM for the second.

`CO[C@@H]1C[C@H](C[C@@H](C)[C@@H]2CC(=O)[C@H](C)/C=C(\C)[C@@H](O)[C@@H](OC)C(=O)[C@H](C)C[C@H](C)/C=C/C=C/C=C(\C)[C@H](OCCCC(N)=O)C[C@@H]3CC[C@@H](C)[C@@](O)(O3)C(=O)C(=O)N3CCCC[C@H]3C(=O)O2)CC[C@H]1OCCO` [Example I-28, 4-[[(21E,23E,25E,26E,33R,34S,35R,36R,38S,40S,42R,43S,44R,45R,55R)-44,55-dihydroxy-43-[(1R)-2-[(1S,3R,4R)-4-(2-hydroxyethoxy)-3-methoxy-cyclohexyl]-1-methyl-ethyl]-45-methoxy-33,34,35,36,46,47-hexamethyl-48,49,50,51,52-pentaoxo-67,68-dioxa-57-azatricyclohexatriaconta-21,23,25(46),26(47)-tetraen-42-yl]oxy]butanamide] and `CO[C@@H]1C[C@H](C[C@@H](C)[C@@H]2CC(=O)[C@H](C)/C=C(\C)[C@@H](O)[C@@H](OC)C(=O)[C@H](C)C[C@H](C)/C=C/C=C/C=C(\C)C(OCCCC(=O)O)C[C@@H]3CC[C@@H](C)[C@@](O)(O3)C(=O)C(=O)N3CCCC[C@H]3C(=O)O2)CC[C@H]1OCCO` (stereo partly drawn) [Example I-30, 4-[[(21E,23E,25E,26E,33R,34S,35R,36R,38S,40S,43S,44R,45R,55R)-44,55-dihydroxy-43-[(1R)-2-[(1S,3R,4R)-4-(2-hydroxyethoxy)-3-methoxy-cyclohexyl]-1-methyl-ethyl]-45-methoxy-33,34,35,36,46,47-hexamethyl-48,49,50,51,52-pentaoxo-67,68-dioxa-56-azatricyclohexatriaconta-21,23,25(46),26(47)-tetraen-42-yl]oxy]butanoic acid] cannot be ordered by IC50: 10 to 100 nM for the first, at least 100 nM for the second.

First: COCCSC1C[C@@H]2CC[C@@H](C)[C@@](O)(O2)C(=O)C(=O)N2CCCC[C@H]2C(=O)O[C@H]([C@H](C)C[C@@H]2CC[C@@H](O)[C@H](OC)C2)CC(=O)[C@H](C)/C=C(\C)[C@@H](O)[C@@H](OC)C(=O)[C@H](C)C[C@H](C)/C=C/C=C/C=C/1C (stereo partly drawn) [Example I-31, (22E,24E,26E,27E,33R,34S,35R,36R,38S,40S,43S,44S,45R,54R)-44,54-dihydroxy-43-[(1R)-2-[(1S,3R,4R)-4-hydroxy-3-methoxy-cyclohexyl]-1-methyl-ethyl]-45-methoxy-42-[2-(2-methoxyethoxy)ethylsulfanyl]-33,34,35,36,46,47-hexamethyl-64,65-dioxa-55-azatricyclohexatriaconta-22,24,26(46),27(47)-tetraene-48,49,50,51,52-pentone]
Second: CO[C@@H]1C[C@H](C[C@@H](C)[C@@H]2CC(=O)[C@H](C)/C=C(\C)[C@@H](O)[C@@H](OC)C(=O)[C@H](C)C[C@H](C)/C=C/C=C/C=C(\C)C(OCCCCCO)C[C@@H]3CC[C@@H](C)[C@@](O)(O3)C(=O)C(=O)N3CCCC[C@H]3C(=O)O2)CC[C@H]1O (stereo partly drawn) [Example I-34, (21E,23E,25E,26E,33R,34S,35R,36R,38S,40S,43S,44R,45R,54R)-44,54-dihydroxy-43-[(1R)-2-[(1S,3R,4R)-4-hydroxy-3-methoxy-cyclohexyl]-1-methyl-ethyl]-42-(5-hydroxypentoxy)-45-methoxy-33,34,35,36,46,47-hexamethyl-65,66-dioxa-55-azatricyclohexatriaconta-21,23,25(46),26(47)-tetraene-48,49,50,51,52-pentone]
The IC50 of the first is higher: 1 to 10 nM for the first, 0.1 to 1 nM for the second.

Compared with `CO[C@@H]1C[C@H](C[C@@H](C)[C@@H]2CC(=O)[C@H](C)/C=C(\C)[C@@H](O)[C@@H](OC)C(=O)[C@H](C)C[C@H](C)/C=C/C=C/C=C(\C)C(NC(=O)OCCOCCO)C[C@@H]3CC[C@@H](C)[C@@](O)(O3)C(=O)C(=O)N3CCCC[C@H]3C(=O)O2)CC[C@H]1O` (stereo partly drawn) [Example I-32, 2-(2-hydroxyethoxy)ethyl N-[(21E,23E,25E,26E,32R,33S,34R,35R,37S,39S,42S,43R,44R,54R)-43,54-dihydroxy-42-[(1R)-2-[(1S,3R,4R)-4-hydroxy-3-methoxy-cyclohexyl]-1-methyl-ethyl]-44-methoxy-32,33,34,35,45,46-hexamethyl-47,48,49,50,51-pentaoxo-67,68-dioxa-56-azatricyclohexatriaconta-21,23,25(45),26(46)-tetraen-41-yl]carbamate], `COc1ccc([C@@H]2C[C@@H]3CC[C@@H](C)[C@@](O)(O3)C(=O)C(=O)N3CCCC[C@H]3C(=O)O[C@H]([C@H](C)C[C@@H]3CC[C@@H](O)[C@H](OC)C3)CC(=O)[C@H](C)/C=C(\C)[C@H](O)[C@@H](OC)C(=O)[C@H](C)C[C@H](C)/C=C/C=C/C=C/2C)c(OC)c1` [Example I-37, (26E,28E,30E,31E,36R,37S,38R,39R,41S,43S,44R,46S,47R,48R,57R)-44-(2,4-dimethoxyphenyl)-47,57-dihydroxy-46-[(1R)-2-[(1S,3R,4R)-4-hydroxy-3-methoxy-cyclohexyl]-1-methyl-ethyl]-48-methoxy-36,37,38,39,49,50-hexamethyl-67,68-dioxa-58-azatricyclohexatriaconta-26,28,30(49),31(50)-tetraene-51,52,53,54,55-pentone] is higher in IC50: 1 to 10 nM for the first, at least 100 nM for the second. The first is the more potent here.

`COc1ccc([C@H]2C[C@@H]3CC[C@@H](C)[C@@](O)(O3)C(=O)C(=O)N3CCCC[C@H]3C(=O)O[C@H]([C@H](C)C[C@@H]3CC[C@@H](O)[C@H](OC)C3)CC(=O)[C@H](C)/C=C(\C)[C@H](O)[C@@H](OC)C(=O)[C@H](C)C[C@H](C)/C=C/C=C/C=C/2C)c(OC)c1` [Example I-38, (26E,28E,30E,31E,36R,37S,38R,39R,41S,43S,44S,46S,47R,48R,57R)-44-(2,4-dimethoxyphenyl)-47,57-dihydroxy-46-[(1R)-2-[(1S,3R,4R)-4-hydroxy-3-methoxy-cyclohexyl]-1-methyl-ethyl]-48-methoxy-36,37,38,39,49,50-hexamethyl-67,68-dioxa-58-azatricyclohexatriaconta-26,28,30(49),31(50)-tetraene-51,52,53,54,55-pentone] was tested, and the IC50 was 10 to 100 nM.
